Measured values as given in publication PMC4984525 (Cancer, 2011).

System: patients with advanced or refractory myeloid leukemias
Test: Phase 1 dose-escalation: safety, DLT and MTD
Type: in vivo

CON(C)C(=O)N1N=C(c2cc(F)ccc2F)S[C@@]1(CCCN)c1ccccc1 [ARRY-520]
MTD, total dose (Schedule 2 (Days 1, 3 and 5)): 4.5 mg/m^2
died within 30 days following discontinuation of ARRY-520, % (all patients): 17%
died within 30 days following discontinuation of ARRY-520, patients n (all patients): 6
Grades 3 or 4 reversible drug-related myelosuppression, patients (human, in vivo): 33/36
adverse events leading to discontinuation, % of patients (human, in vivo): 8%
adverse events leading to discontinuation, patients n (human, in vivo): 3
asymptomatic Grade 1 QTc prolongation, % of patients (human, in vivo): 22%
asymptomatic Grade 1 QTc prolongation, patients n (human, in vivo): 8
asymptomatic Grade 2 QTc prolongation, % of patients (human, in vivo): 3%
asymptomatic Grade 2 QTc prolongation, patients n (human, in vivo): 1
drug-related SAE bacteremia, % (human, in vivo): 3%
drug-related SAE diarrhea, % (human, in vivo): 3%
drug-related SAE exfoliative rash, % (human, in vivo): 3%
drug-related SAE hyperbilirubinemia, % (human, in vivo): 3%
drug-related SAE neutropenic fever, % (human, in vivo): 8%
drug-related SAE palmar-plantar erythrodysesthesia, % (human, in vivo): 6%
drug-related SAE pancytopenia, % (human, in vivo): 3%
drug-related SAE stomatitis, % (human, in vivo): 3%
patients with one or more SAEs related to study drug, % (human, in vivo): 28%
Dose-limiting toxicities (DLT) (in vivo): mucositis, exfoliative rash, hand-foot syndrome and hyperbilirubinemia
Neurotoxicity (in vivo): not observed
other clinically significant ECG changes (in vivo): No other clinically significant ECG changes were observed
